Three compounds from US4206215A, “Antimicrobial bis-[4-(substituted-amino)-1-pyridinium]alkanes” (Sterling Drug Inc., priority 1977, dated 1980) can be followed below.

The subject of one series is S. pyogen. C203. As to the kind of experiment: In vitro antibacterial activity, MIC (modified Autotiter method). To be noted: 18-20 hours at 37° C. The format is cell-based, Streptococcus pyogenes. The gist of the method: (§1)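 Compounds are diluted serially by twofold steps in sterile water using the Autotiter, beginning with a 1,000 mcg./ml. solution; addition of inoculated double-strength semisynthetic medium with glucose yields final concentrations between 500 and 0.06 mcg./ml.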

The next series relates to Ps. aerug. MGH-2. Described as above. To be noted: 18-20 hours at 37° C. It is filed as cell-based, Pseudomonas aeruginosa. In outline:
as §1

The test system of a further series is P. mirab. MGH-1. The series is described as above. It is filed as cell-based, Proteus mirabilis. The note with it: 18-20 hours at 37° C. The gist of the method:
as §1

A further series concerns C. albicans 10231. Description: In vitro antifungal activity, MIC (modified Autotiter method). It is filed as cell-based, Candida albicans. To be noted: 18-20 hours at 37° C. The gist of the method:
as §1

The next series has as its system C. albicans Wisc. Described as above. To be noted: 18-20 hours at 37° C. The format is cell-based, Candida albicans. In outline: as §1
In another series the test system is K. pneum. 39645. Description: In vitro antibacterial activity, MIC (modified Autotiter method). It is filed as cell-based, Klebsiella pneumoniae. The note with it: 18-20 hours at 37° C. In outline: as §1
The next series relates to T. menta. 9129. As to the kind of experiment: In vitro antifungal activity, MIC (modified Autotiter method). It is filed as cell-based, Trichophyton mentagrophytes. To be noted: 18-20 hours at 37° C. The gist of the method: as §1
Series [1] concerns young adult male Swiss-Webster strain albino mice. Description: Acute oral toxicity (ALD50). It is filed as in vivo. The method, then: (§2) The acute oral toxicity (ALD50) of several representative examples was determined as follows: Groups of 3 young adult male Swiss-Webster strain albino mice were fasted approximately 4 hours before medication and then medicated once orally by stomach tube.

Series [2] in a line: Acute oral toxicity (ALD50). It is filed as in vivo. To be noted: mouse, in vivo, po, mice, read-out: 7-Day ALD50. As to the method:
as §2

For series [3], the system named is Streptococcus mutans OMZ-61. As to the kind of experiment: Dental plaque-preventive effectiveness in the presence of sterile human saliva (50%). It is filed as cell-based. To be noted: 50% sterile human saliva. As to the method:
The dental plaque preventive activity of certain of the compounds of the present invention was determined by measuring the ability of these compounds to inhibit the production of dental plaque by Streptococcus mutans OMZ-61 as follows:
A culture medium for the plaque-producing Streptococcus mutans OMZ-61 containing 1.5 g. of BBL beef extract, 5 g. of sodium chloride, 10 g. of dehydrated trypticase, 5 g. of sucrose and sufficient distilled water to give a total volume of 1000 ml. is adjusted to pH 7.0 and sterilized by membrane filtration. The medium is dispensed aseptically in 10-ml. aliquots into 150×16 mm. test tubes and stored at refrigeration temperature until used.
Two concentrations of the compound to be tested are prepared by dissolving 100 mg. of the compound in 1 ml. of distilled water with the aid of sufficient 0.1 N sodium hydroxide, 10% dimethylsulfoxide or 10% N,N-dimethylformamide and diluting the resulting solution to 10 ml. with distilled water. This 1.0% solution and a 1:10 dilution in distilled water (0.1%) are sterilized by membrane filtration before use.
A sterile piece of plaque-free natural tooth enamel or synthetic hydroxylapatite is suspended in each concentration of compound for two 1-minute periods, each followed by a 1-minute air drying period. Each piece is then suspended and agitated for 5 minutes in individual test tubes containing sterile distilled water (rinse). They are then suspended in 10 ml. of liquid beef extract medium to which has been added 0.3 ml. of a 24-hr. anaerobic culture of Streptococcus mutans. The tubes containing the "treated" hydroxylapatite and the Streptococcus mutans are then incubated anaerobically at 37° C. for 24 hours. The same process of two 1-minute soaks in the solution of compound, each followed by 1 minute of air drying and the final 5-minute rinse is repeated before once again suspending the hydroxylapatite in a fresh tube containing 10 ml. of beef extract medium and 0.3 ml. of inoculum. At the end of the second 24-hour period, each piece of hydroxylapatite is rinsed for 1 minute in 3 successive tubes of distilled water. These are then suspended for 1 minute in a solution of F, D & C Red No. 3 dye. This staining procedure is used in order to identify more easily the development of plaque after the 48-hour period of exposure to the plaque-producing organism. The staining period is followed by another 10-second rinse to remove excess dye. Any plaque formation stains a brilliant pink. […] Active compounds are tested at successively lower doses in order to determine the minimum effective concentration. On some occasions, the interference of plaque production is caused by the inhibition of growth of the organism in the culture medium because the compound has been leached from the hydroxylapatite to produce an antibacterial level in the medium. When this occurs, the compound is tested at lower concentrations until the growth of the organism in the surrounding medium is equal to that in the nonmedicated control culture. Plaque may or may not be formed at these lower concentrations.
Dental plaque-preventive effectiveness in the presence of sterile human saliva (50%) was determined for representative examples.

For another series, the system named is A. niger 16404. As to the kind of experiment: In vitro antifungal activity, MIC (modified Autotiter method). The format is cell-based, Aspergillus niger. To be noted: 18-20 hours at 37° C. In outline: as §1
Another series concerns E. coli 100/B22. As to the kind of experiment: In vitro antibacterial activity, MIC (modified Autotiter method). The format is cell-based, Escherichia coli. The note with it: for MIC E. coli 100/B22: 18-20 hours at 37° C. In outline: as §1
The subject of a further series is E. coli AB1932-1. Described as above. It is filed as cell-based, Escherichia coli. To be noted: 18-20 hours at 37° C. In outline: as §1
The test system of another series is E. coli Vogel. The series is described as above. It is filed as cell-based, Escherichia coli. The note with it: 18-20 hours at 37° C. In outline: as §1
Another series concerns S. Aureus Smith. The series is described as above. The format is cell-based, Staphylococcus aureus. The note with it: 18-20 hours at 37° C. In outline: as §1
Where [4] appears, read: 125 mg/kg oral, aqueous solution.
Setting [5] is: 250 mg/kg oral, aqueous solution.
[6] abbreviates: 500 mg/kg oral, aqueous solution.
Where [7] appears, read: 1000 mg/kg oral, aqueous solution.
Where [8] appears, read: 125 mg/kg oral, suspension in 1% G.T.
Where [9] appears, read: 500 mg/kg oral, suspension in 1% G.T.
[10] abbreviates: 1000 mg/kg oral, suspension in 1% G.T.
[11] abbreviates: 1250 mg/kg (so in the source) oral, suspension in 1% G.T.
The mark [12] stands for this setting: 250 mg/kg oral, suspension in 1% G.T.

Read-outs that look alike come from different tables or passages of the source.

Consider `CCCCCCCCNc1cc[n+](CCCCCCCCCC[n+]2ccc(NCCCCCCCC)cc2)cc1` [10A,B, 1,10-bis-[4-(octylamino)-1-pyridinium]decane dichloride], for which the MIC with S. pyogen. C203 (Streptococcus pyogenes, 20 h, read-out: MIC S. pyogen. C203) worked out at 1 mg/L; in the series with Ps. aerug. MGH-2 (Pseudomonas aeruginosa, 20 h, read-out: MIC Ps. aerug. MGH-2), 3.9 mg/L; in the series on P. mirab. MGH-1 (Proteus mirabilis, 20 h, read-out: MIC P. mirab. MGH-1), 3.9 mg/L; with C. albicans 10231 (Candida albicans, 10231, 20 h, read-out: MIC C. albicans 10231), 1.95 mg/L; with C. albicans Wisc. (Candida albicans, 20 h, read-out: MIC C. albicans Wisc.), 1.95 mg/L; in the series with K. pneum. 39645 (Klebsiella pneumoniae, 20 h, read-out: MIC K. pneum. 39645), 1.95 mg/L. Besides, the MIC in the series with T. menta. 9129 (Trichophyton mentagrophytes, 20 h, read-out: MIC T. menta. 9129) came to 1.95 mg/L; in the series with E. coli 100/B22 (Escherichia coli, 100/B22, 20 h, read-out: MIC E. coli 100/B22, 18-20 hours at 37° C.) it was 1 mg/L; in the series on E. coli AB1932-1 (Escherichia coli, AB19321, 20 h, read-out: MIC E. coli AB1932-1) it was 1 mg/L; in the series with E. coli Vogel (Escherichia coli, 20 h, read-out: MIC E. coli Vogel), 1.95 mg/L; with S. Aureus Smith (Staphylococcus aureus, 20 h, read-out: MIC S. Aureus Smith) it was 0.5 mg/L. Also, the “Mortality 7 Days” value in series [1] (setting [4]), in series [1] (setting [5]), in series [1] (setting [6]) and in [1] (setting [7]) was 0/3 throughout. Besides, the “Mortality 24 Hrs” value in series [1] (setting [4]), in series [1] (setting [5]), in [1] (setting [6]) and in [1] (setting [7]) was 0/3 throughout. Also, the LD50 at 168 h in series [2] (aqueous solution) is above 1000 mg/kg. Moreover, the “Dental Plaque Preventive Activity in 50% saliva Minimum Effective Conc. (%)” value (“Dental Plaque Preventive Activity … (%)” below) in series [3] (listed as 10 A, B) came out at 0.005%. Besides, in the series on A. niger 16404, the “MIC A. niger 16404” value is 7.8 mg/L.

Consider `CCCCCCCNc1cc[n+](CCCCCCCCCCCC[n+]2ccc(NCCCCCCC)cc2)cc1` [Example 4, 1,12-bis-[4-(heptylamino)-1-pyridinium]dodecane dichloride], for which the “MIC S. pyogen. C203” value in the series with S. pyogen. C203 was determined as 1.0 mg/L. In addition, the “MIC Ps. aerug. MGH-2” value in the series on Ps. aerug. MGH-2 amounted to 3.9 mg/L. Moreover, in the series on P. mirab. MGH-1, the “MIC P. mirab. MGH-1” value turned out to be 1.95 mg/L. Moreover, in the series on C. albicans 10231, the “MIC C. albicans 10231” value turned out to be 1.95 mg/L. In addition, the “MIC C. albicans Wisc.” value in the series on C. albicans Wisc. was 1.95 mg/L. For the same compound, the “MIC K. pneum. 39645” value against K. pneum. 39645 was 1.95 mg/L. Besides, the “MIC T. menta. 9129” value with T. menta. 9129 came to 0.5 mg/L. In addition, the “Mortality 7 Days” value in series [1] (setting [8]), in series [1] (setting [9]), in series [1] (setting [10]) and in series [1] (setting [11]) was 0/3 in each case. Further, the “Mortality 24 Hrs” value in series [1] (setting [8]), in series [1] (setting [9]), in series [1] (setting [10]) and in series [1] (setting [11]) was 0/3 throughout. The “7-Day ALD50” value in series [1] (oral, suspension in 1% gum tragacanth, 10080 min) is given as above 1000 mg/kg. In addition, in [3], the “Dental Plaque Preventive Activity … (%)” value was “Ca. 0.005%”. In addition, the “MIC A. niger 16404” value in the series on A. niger 16404 amounted to 7.8 mg/L. The “MIC E. coli 100/B22” value against E. coli 100/B22 came out at 0.5 mg/L. Moreover, the “MIC E. coli AB1932-1” value in the series with E. coli AB1932-1 amounted to 1.0 mg/L. Also, the “MIC E. coli Vogel” value against E. coli Vogel was 0.5 mg/L. Besides, the “MIC S. Aureus Smith” value in the series with S. Aureus Smith was 0.25 mg/L.

On to `CCCCCCCCNc1cc[n+](CCCCCC[n+]2ccc(NCCCCCCCC)cc2)cc1` [Example 14], for which, in the series on S. pyogen. C203, the “MIC S. pyogen. C203” value was determined as 0.5 mg/L. For the same compound, in the series with Ps. aerug. MGH-2, the “MIC Ps. aerug. MGH-2” value turned out to be 31.3 mg/L. Moreover, the “MIC P. mirab. MGH-1” value in the series with P. mirab. MGH-1 was found to be 15.6 mg/L. Also, the “MIC C. albicans 10231” value in the series with C. albicans 10231 was determined as 1.95 mg/L. For the same compound, the “MIC C. albicans Wisc.” value in the series on C. albicans Wisc. came out at 1.95 mg/L. The “MIC K. pneum. 39645” value against K. pneum. 39645 was found to be 1.95 mg/L. In addition, the “MIC T. menta. 9129” value against T. menta. 9129 was determined as 1.0 mg/L. The “Mortality 7 Days” value is recorded as 0/3 in series [1] (setting [8]), 0/3 in series [1] (setting [12]), 0/3 in series [1] (setting [9]) and 1/3 in [1] (setting [10]). The “Mortality 24 Hrs” value in series [1] (setting [8]), in [1] (setting [12]), in series [1] (setting [9]) and in series [1] (setting [10]) was 0/3 throughout. The LD50 at 168 h in series [2] (suspension in 1% gum tragacanth) was above 1000 mg/kg. In addition, the “Dental Plaque Preventive Activity … (%)” value in [3] amounted to 0.1%. In the series with A. niger 16404, the “MIC A. niger 16404” value amounted to 15.6 mg/L. Moreover, the “MIC E. coli 100/B22” value in the series on E. coli 100/B22 was found to be 0.5 mg/L. For the same compound, in the series on E. coli AB1932-1, the “MIC E. coli AB1932-1” value was 0.5 mg/L. Moreover, the “MIC E. coli Vogel” value with E. coli Vogel came out at 1.0 mg/L. Moreover, in the series on S. Aureus Smith, the “MIC S. Aureus Smith” value came out at 0.25 mg/L.
